# Measurements as given in ChEMBL document CHEMBL5518238, “Structure-Activity Relationship (SAR) Studies of Novel Monovalent AR/AR-V7 Dual Degraders with Potent Efficacy against Advanced Prostate Cancer” (J Med Chem, 2024).
# Active and inactive are the calls of the source. The calls are words filed in the database; no cut-off is given here.
# Key:
# CWR22R [1] = assay: Induction of apoptosis in human 22Rv1 cells at 5 uM incubated for 24 hrs by Annexin V-FITC/PI staining based flow cytometric analysis (reference value: 3.70 %); type: functional
# [2] = tested on: Androgen receptor (Homo sapiens), P10275 [UNDEFINED MUTATION]; assay: Binding affinity to AR-V7 (unknwon origin) assessed as thermal stabilization at 10 uM incubated for 2 hrs by CETSA analysis; type: cell-based; details: 22Rv1
# [3] = biological target: T1, Androgen receptor (Homo sapiens) (UniProt P10275); assay: Binding affinity to AR (unknown origin) assessed as thermal stabilization at 10 uM incubated for 2 hrs by CETSA analysis; type: cell-based; details: 22Rv1
# T1 sequence (whole entry): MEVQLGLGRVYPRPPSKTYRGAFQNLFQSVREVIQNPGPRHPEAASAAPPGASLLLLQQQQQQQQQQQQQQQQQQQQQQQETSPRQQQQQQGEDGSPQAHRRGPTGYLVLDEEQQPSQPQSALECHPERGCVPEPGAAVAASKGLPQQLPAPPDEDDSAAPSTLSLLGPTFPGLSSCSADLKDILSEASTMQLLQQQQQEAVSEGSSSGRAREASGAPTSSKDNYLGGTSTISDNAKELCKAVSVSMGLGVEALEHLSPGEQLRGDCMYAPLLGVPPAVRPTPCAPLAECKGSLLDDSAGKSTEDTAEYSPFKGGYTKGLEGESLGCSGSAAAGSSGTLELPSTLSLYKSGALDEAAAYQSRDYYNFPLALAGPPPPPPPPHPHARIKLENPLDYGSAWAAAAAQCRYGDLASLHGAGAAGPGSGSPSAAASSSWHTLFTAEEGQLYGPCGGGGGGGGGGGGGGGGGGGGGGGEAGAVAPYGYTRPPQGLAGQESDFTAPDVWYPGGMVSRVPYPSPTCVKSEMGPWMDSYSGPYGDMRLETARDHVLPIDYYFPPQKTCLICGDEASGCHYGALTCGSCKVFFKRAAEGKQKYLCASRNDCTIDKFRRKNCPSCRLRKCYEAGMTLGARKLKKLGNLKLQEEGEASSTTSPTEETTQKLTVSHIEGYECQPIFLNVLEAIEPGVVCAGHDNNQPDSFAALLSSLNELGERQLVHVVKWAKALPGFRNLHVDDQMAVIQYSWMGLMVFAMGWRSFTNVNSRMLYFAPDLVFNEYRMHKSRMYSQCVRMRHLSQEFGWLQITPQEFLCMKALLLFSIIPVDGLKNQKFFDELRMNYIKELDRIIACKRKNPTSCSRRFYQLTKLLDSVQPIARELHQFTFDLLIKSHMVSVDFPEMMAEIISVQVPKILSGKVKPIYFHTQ
# CWR22R [4] = assay: Downregulation of KLK2 mRNA expression in human 22Rv1 cells incubated for 24 hrs by qRT-PCR analysis; type: functional, cell-based; details: dose 5-10 µM
# [5] = tested on: Androgen receptor (Homo sapiens), P10275 [UNDEFINED MUTATION]; assay: Induction of AR-V7 degradation in human 22Rv1 cells at 10 uM incubated for 24 hrs in presence of CHX by Western blot analysis; type: cell-based
# CWR22R [6] = assay: Induction of cell cycle arrest in human 22Rv1 cells assessed as accumulation of cells at G0/G1 phase at 5 uM incubated for 24 hrs by DAPI staining based flow cytometric analysis (reference value: 26.3 %); type: functional
# [7] = biological target: T1, Androgen receptor (Homo sapiens); assay: Induction of AR degradation in human 22Rv1 cells at 10 uM incubated for 24 hrs in presence of MDM2 by Western blot analysis; type: cell-based
# CWR22R [8] = assay: Induction of apoptosis in human 22Rv1 cells assessed as effect on Caspase-3 level incubated for 24 hrs by Western blot analysis; type: functional, cell-based; details: dose <= 10.0 µM
# [9] = Toxicity in NSG mouse xenografted with human 22Rv1 cells assessed as spleen damage t at 30 mg/kg, IG administered once daily for 21 days by H and E staining based analysis; type: organism-based, CWR22R; details: in vivo, po, 504 h, time 21 day
# CWR22R [10] = assay: Downregulation of AR expression in human 22Rv1 cells at 5 uM incubated for 24 hrs by Western blot analysis; type: functional, cell-based
# CWR22R [11] = assay: Inhibition of colony formation in human 22Rv1 cells incubated for 2 weeks by crystal violet staining based analysis; type: functional, cell-based; details: dose 0.1-5 µM
# [12] = Volume of distribution at steady state in Sprague-Dawley rat at 5 mg/kg, iv by LC-MS/MS analysis; type: ADME, organism-based; details: in vivo
# CWR22R [13] = assay: Antitumor activity against human 22Rv1 cells xenografted in NSG mouse assessed as change in tumor volume at 30 mg/kg, IG administered once daily for 21 days; type: functional, organism-based; details: time 21.0 day
# CWR22R [14] = assay: Downregulation of AR mRNA expression in human 22Rv1 cells at 5 to 10 uM incubated for 12 hrs by qRT-PCR analysis; type: functional, cell-based; details: dose 5-10 µM
# [15] = Toxicity in NSG mouse xenografted with human 22Rv1 cells assessed as kidney damage t at 30 mg/kg, IG administered once daily for 21 days by H and E staining based analysis; type: organism-based, CWR22R; details: in vivo, po, 504 h, time 21 day
# [16] = biological target: T1, Androgen receptor (Homo sapiens); assay: Induction of AR degradation in human 22Rv1 cells at 10 uM incubated for 24 hrs in presence of CHX by Western blot analysis; type: cell-based
# CWR22R [17] = assay: Downregulation of NKX3-1 mRNA expression in human 22Rv1 cells at 10 uM incubated for 24 hrs by qRT-PCR analysis; type: functional, cell-based
# [18] = Toxicity in NSG mouse xenografted with human 22Rv1 cells assessed as effect on body weight at 30 mg/kg, IG administered once daily for 21 days; type: organism-based, CWR22R; details: in vivo, po, 504 h, time 21 day
# [19] = MRT (0 to t) in Sprague-Dawley rat at 5 mg/kg, iv by LC-MS/MS analysis; type: ADME, organism-based; details: in vivo
# CWR22R [20] = assay: Downregulation of P3H3 mRNA expression in human 22Rv1 cells at 10 uM incubated for 24 hrs by qRT-PCR analysis; type: functional, cell-based
# [21] = Toxicity in NSG mouse xenografted with human 22Rv1 cells assessed as heart damage t at 30 mg/kg, IG administered once daily for 21 days by H and E staining based analysis; type: organism-based, CWR22R; details: in vivo, po, 504 h, time 21 day
# CWR22R [22] = assay: Downregulation of AR-V7 expression in human 22Rv1 cells at 5 uM incubated for 24 hrs by Western blot analysis; type: functional, cell-based
# CWR22R [23] = assay: Downregulation of BARD1 mRNA expression in human 22Rv1 cells at 10 uM incubated for 24 hrs by qRT-PCR analysis; type: functional, cell-based
# [24] = biological target: T1, Androgen receptor (Homo sapiens); assay: Induction of AR degradation in human LNCaP cells incubated for 24 hrs by Western blot analysis; type: cell-based; details: dose <= 30.0 µM
# [25] = biological target: T1, Androgen receptor (Homo sapiens); assay: (§1) Induction of AR degradation in human 22Rv1 cells incubated for 24 hrs by Western blot analysis; type: cell-based; details: dose 1-10 µM
# Androgen receptor = biological target: T2, Androgen receptor (Homo sapiens, UniProt P10275); assay: as §1; type: cell-based
# T2 sequence (P10275 whole entry): T1 sequence (whole entry)
# CWR22R [26] = assay: Downregulation of SLC26A2 mRNA expression in human 22Rv1 cells at 10 uM incubated for 24 hrs by qRT-PCR analysis; type: functional, cell-based
# CWR22R [27] = assay: Induction of apoptosis in human 22Rv1 cells assessed as effect on Bcl-2 level incubated for 24 hrs by Western blot analysis; type: functional, cell-based; details: dose <= 10.0 µM
# CWR22R [28] = assay: Induction of apoptosis in human 22Rv1 cells at 1 uM incubated for 24 hrs by Annexin V-FITC/PI staining based flow cytometric analysis (reference value: 3.70 %); type: functional
# CWR22R [29] = assay: Downregulation of BCHE mRNA expression in human 22Rv1 cells at 10 uM incubated for 24 hrs by qRT-PCR analysis; type: functional, cell-based
smiles,measurement,setting,value
CC1(C)C(=O)N(c2ccc(C#N)c(C(F)(F)F)c2)C(=O)N1CCNc1ccc(F)c2ncccc12,Activity,CWR22R [1],18.81%
same,Activity,[2],inactive
same,Activity,[3],inactive
same,Activity,CWR22R [4],Dose-Dependent Effect
same,Activity,[5],Active
same,Activity,CWR22R [6],50.6%
same,Activity,[7],Active
same,Activity,CWR22R [8],Dose-Dependent Effect
same,Activity,[9],Non-Toxic
same,Activity,CWR22R [10],Active
same,inhibition,CWR22R [11],Dose-Dependent Effect
same,Vdss,[12],2.5 L/kg
same,Activity,CWR22R [13],Active
same,Activity,CWR22R [14],Active
same,Activity,[15],Non-Toxic
same,Activity,[16],Active
same,Activity,CWR22R [17],Active
same,Activity,[18],Non-Toxic
same,MRT last,[19],1.3 h
same,Activity,CWR22R [20],Active
same,Activity,[21],Non-Toxic
same,Activity,CWR22R [22],Active
same,Activity,CWR22R [23],Active
same,Activity,[24],Dose-Dependent Effect
same,Activity,[25],Dose-Dependent Effect
same,DC50,Androgen receptor,2670 nM
same,Activity,CWR22R [26],Active
same,Activity,CWR22R [27],Dose-Dependent Effect
same,Activity,CWR22R [28],11.94%
same,Activity,CWR22R [29],Active
